The values below are quoted from earlier work in patent US11925657B2, “Formulations and methods for treating conditions of the eye” (Sight Sciences, Inc., priority 2020, dated 2024).

The conditions of series [1]: antibiotic levels of azithromycin (1%).
For series [2] the following is noted: lower concentrations, e.g. 0.1% and 0.35%.

For the compound `CC[C@H]1OC(=O)[C@H](C)[C@@H](O[C@H]2C[C@@](C)(OC)[C@@H](O)[C@H](C)O2)[C@H](C)[C@@H](O[C@@H]2O[C@H](C)C[C@H](N(C)C)[C@H]2O)[C@](C)(O)C[C@@H](C)CN(C)[C@H](C)[C@@H](O)[C@]1(C)O` [azithromycin], in series [1], the “phase transition temperature of meibum lipids and lipid ordering” value is “can improve”.

Regarding ivermectin, the “efficacy toward intended rosacea treatment” value in series [2] was “lose efficacy”.
